Source: US7960377B2 (priority 2008, dated 2011)
Like-named read-outs stand apart in the source and are kept apart here. Marks after values point to notes of the source that are not given here.

What was measured:
Assay in all cases: cell-based
[1] = target: human CB2 receptor (Homo sapiens, UniProt P34972); format: cell-based; conditions: for inverse agonist mark, human CB2 receptor: asterisk at the compound number
[2] = target: T1, rat CB2 receptor (Rattus norvegicus, UniProt Q9QZN9); format: cell-based; conditions: for inverse agonist mark, rat CB2 receptor: asterisk at the compound number
T1 sequence (Q9QZN9 1-360): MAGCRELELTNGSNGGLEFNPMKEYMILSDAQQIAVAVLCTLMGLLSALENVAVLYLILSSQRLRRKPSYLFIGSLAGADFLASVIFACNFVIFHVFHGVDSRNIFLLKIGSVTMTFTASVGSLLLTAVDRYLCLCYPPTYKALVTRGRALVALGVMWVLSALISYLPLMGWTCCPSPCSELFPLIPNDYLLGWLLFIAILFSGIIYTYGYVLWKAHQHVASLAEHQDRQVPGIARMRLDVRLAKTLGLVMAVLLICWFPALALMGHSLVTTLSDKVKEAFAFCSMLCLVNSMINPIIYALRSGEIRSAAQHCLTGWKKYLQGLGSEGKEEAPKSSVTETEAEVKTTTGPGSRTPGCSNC

[3] = target: human CB1 receptor (Homo sapiens, UniProt P21554)
Chain of human CB1 receptor (P21554 whole entry): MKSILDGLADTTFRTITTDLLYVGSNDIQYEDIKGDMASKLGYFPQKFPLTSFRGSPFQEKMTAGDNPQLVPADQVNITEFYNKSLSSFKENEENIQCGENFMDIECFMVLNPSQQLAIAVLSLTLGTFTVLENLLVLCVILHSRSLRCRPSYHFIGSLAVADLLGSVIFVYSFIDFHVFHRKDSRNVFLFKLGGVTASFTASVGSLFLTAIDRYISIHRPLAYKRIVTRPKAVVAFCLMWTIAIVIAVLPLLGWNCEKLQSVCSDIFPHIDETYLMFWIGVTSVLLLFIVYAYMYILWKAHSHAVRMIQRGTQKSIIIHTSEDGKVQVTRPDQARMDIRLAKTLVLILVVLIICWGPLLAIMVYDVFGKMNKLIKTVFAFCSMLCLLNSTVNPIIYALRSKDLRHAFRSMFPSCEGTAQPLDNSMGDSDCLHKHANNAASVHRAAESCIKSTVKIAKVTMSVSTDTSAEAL

[4] = change in intracellular cAMP, CHO-K1 hCB2 cells, class AR, read-out: EC50 values for human CB2 receptor

Chain of human CB2 receptor (P34972 whole entry): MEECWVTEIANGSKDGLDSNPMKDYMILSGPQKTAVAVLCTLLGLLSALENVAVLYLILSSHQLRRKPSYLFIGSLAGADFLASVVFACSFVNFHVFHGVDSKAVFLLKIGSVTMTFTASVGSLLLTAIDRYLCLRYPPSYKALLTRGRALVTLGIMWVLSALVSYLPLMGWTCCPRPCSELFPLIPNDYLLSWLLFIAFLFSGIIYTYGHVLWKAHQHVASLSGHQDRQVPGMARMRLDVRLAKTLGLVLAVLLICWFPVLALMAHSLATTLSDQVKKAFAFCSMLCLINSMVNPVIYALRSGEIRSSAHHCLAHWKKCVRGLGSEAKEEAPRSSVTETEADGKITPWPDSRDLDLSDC

| Compound | EC50 [1] | EC50 [2] | EC50 [3] | inverse agonist mark, rat CB2 receptor [2] | EC50 [1, 4] | inverse agonist mark, human CB2 receptor [1] |
| --- | --- | --- | --- | --- | --- | --- |
| CC(C)(C)NC(=O)c1cnc2c(c1)N(S(=O)(=O)N1CC(F)(F)C1)CCO2 [Example 193, N-tert-butyl-1-(3,3-difluoroazetidin-1-ylsulfonyl)-2,3-dihydro-1H-pyrido[2,3-b][1,4]oxazine-7-carboxamide] | > 30 µM | ≤ 0.03 µM | > 30 µM | – | – | – |
| CCC(C)(C)NC(=O)c1cnc2c(c1)N(S(=O)(=O)N1CCC(F)CC1)CCO2 [Example 167, 1-(4-fluoropiperidin-1-ylsulfonyl)-N-tert-pentyl-2,3-dihydro-1H-pyrido[2,3-b][1,4]oxazine-7-carboxamide] | ≤ 0.03 µM | ≤ 0.03 µM | > 30 µM | – | – | – |
| CN(CC(C)(C)CO)C(=O)c1cnc2c(c1)N(S(=O)(=O)N1CCc3ccccc3C1)CCO2 [Example 192, 1-(3,4-dihydroisoquinolin-2(1H)-ylsulfonyl)-N-(3-hydroxy-2,2-dimethyl-propyl)-N-methyl-2,3-dihydro-1H-pyrido[2,3-b][1,4]oxazine-7-carboxamide] | > 30 µM | > 30 µM | > 30 µM | – | – | – |
| CCC(C)(C)NC(=O)c1cnc2c(c1)N(S(=O)(=O)c1ccc(C(F)(F)F)cc1)CCO2 [Example 66, N-tert-pentyl-1-(4-(trifluoromethyl)phenylsulf-onyl)-2,3-dihydro-1H-pyrido[2,3-b][1,4]oxazine-7-carboxamide] | ≤ 0.03 µM | ≤ 0.03 µM | > 30 µM | – | – | – |
| CC(C)(CO)NC(=O)c1cnc2c(c1)N(S(=O)(=O)N1CCC(Cl)CC1)CCO2 [Example 186, 1-(4-chloropiperidin-1-ylsulfonyl)-N-(1-hydroxy-2-methylpropan-2-yl)-2,3-dihydro-1H-pyrido[2,3-b][1,4]oxazine-7-carboxamide] | > 30 µM | ≤ 0.03 µM | > 30 µM | – | – | – |
| CC(C)(C)c1cc(NC(=O)c2cnc3c(c2)N(S(=O)(=O)N2CCC(C(F)(F)F)CC2)CCO3)on1 [Example 153, N-(3-tert-butylisoxazol-5-yl)-1-(4-(trifluoromethyl)piperidin-1-ylsulfonyl)-2,3-dihydro-1H-pyrido[2,3-b][1,4]oxazine-7-carboxamide] | > 30 µM | ≤ 0.03 µM | ≤ 0.3 µM | 146, 148, 149, 150, 151, 152, 153*, 154*, 155, 156, 157, 163, 164, | – | – |
| CN(C)S(=O)(=O)N1CCN(C(=O)c2cnc3c(c2)N(S(=O)(=O)c2ccc(Cl)c(Cl)c2)CCO3)CC1 [Example 119, 4-(1-(3,4-dichlorophenylsulfonyl)-2,3-dihydro-1H-pyrido [2,3-b][1,4]oxazine-7-carbonyl)-N,N-dimethyl piperazine-1-sulfonamide] | – | > 30 µM | > 30 µM | – | > 30 µM | – |
| CCC(C)(C)NC(=O)c1cnc2c(c1)N(S(=O)(=O)N1CCC(N3CCCC3)CC1)CCO2 [Example 177, N-tert-pentyl-1-(4-(pyrrolidin-1-yl)piperidin-1-ylsulfonyl)-2,3-dihydro-1H-pyrido[2,3-b][1,4]oxazine-7-carboxamide] | > 30 µM | > 30 µM | > 30 µM | – | – | – |
| CC(C)(CO)CNC(=O)c1cnc2c(c1)N(S(=O)(=O)N1CCc3ccccc3C1)CCO2 [Example 191, 1-(3,4-dihydroisoquinolin-2(1H)-ylsulfonyl)-N-(3-hydroxy-2,2-dimethylpropyl)-2,3-dihydro-1H pyrido[2,3-b][1,4]oxazine-7-carboxamide] | > 30 µM | ≤ 0.03 µM | > 30 µM | – | – | – |
| CC(C)(C)N(CCCN)C(=O)c1cnc2c(c1)N(S(=O)(=O)c1ccc(C(F)(F)F)cc1)CCO2 [Example 45, N-(3-aminopropyl)-N-tert-butyl-1-(4-(trifluoromethyl)phenylsulf-onyl)-2,3-dihydro-1H-pyrido[2,3-b][1,4]oxazine-7-carboxamide] | – | > 30 µM | > 30 µM | – | > 30 µM | – |
| O=C(c1cnc2c(c1)N(S(=O)(=O)c1ccccc1)CCO2)N1CCOCC1 [Example 4, morpholino(1-(phenyl-sulfonyl)-2,3-dihydro-1H-pyrido[2,3-b][1,4]oxazin-7-yl)methanone] | – | > 30 µM | > 30 µM | – | > 30 µM | – |
| CC(C)(C)NC(=O)c1cnc2c(c1)N(S(=O)(=O)c1ccc(Cl)s1)CCO2 [Example 94, N-tert-butyl-1-(5-chlorothiophen-2-ylsulfonyl)-2,3-dihydro-1H-pyrido[2,3-b][1,4]oxazine-7-carboxamide] | – | > 30 µM | > 30 µM | – | > 30 µM | – |
| CNC(=O)[C@@H](NC(=O)c1cnc2c(c1)N(S(=O)(=O)c1ccc(F)cc1)CCO2)C(C)(C)C [Example 15, (S)-N-(3,3-dimethyl-1-(methylamino)-1-oxobutan-2-yl)-1-(4-fluorophenyl-sulfonyl)-2,3-dihydro-1H-pyrido [2,3-b][1,4]oxazine-7-carboxamide] | – | ≤ 0.03 µM | > 30 µM | 2, 3, 6*, 7, 8, 10, 11, 12, 15*, 20, 21, 22, 23, 24, 25, 26, 27, 33, 39, | – | 1, 5, 9, 12, 14, 15*, 28, 29, 34, 35, 36, 37, 41, 44, 49, 50, 51, 54, 56, |
| CS(=O)(=O)N1CCN(C(=O)c2cnc3c(c2)N(S(=O)(=O)c2ccc(Cl)c(Cl)c2)CCO3)CC1 [Example 116, (1-(3,4-dichloro-phenylsulfonyl)-2,3-dihydro-1H-pyrido[2,3-b][1,4]oxazin-7-yl)(4-(methylsulfonyl)piperazin-1-yl)methanone] | – | > 30 µM | > 30 µM | – | > 30 µM | – |
| O=C(NC1(C(=O)O)CC1)c1cnc2c(c1)N(S(=O)(=O)c1ccc(C(F)(F)F)cc1)CCO2 [Example 206, 1-(1-(4-(trifluoromethyl)phenylsulfonyl)-2,3-dihydro-1H-pyrido[2,3-b][1,4]oxazine-7-carboxamido)cyclopropanecarboxylic acid] | – | > 30 µM | > 30 µM | – | > 30 µM | – |
| CC(C)(C)c1cc(NC(=O)c2cnc3c(c2)N(S(=O)(=O)N2CCC(c4ccccc4)CC2)CCO3)no1 [Example 162, N-(5-tert-butylisoxazol-3-yl)-1-(4-phenylpiperidin-1-ylsulfonyl)-2,3-dihydro-1H-pyrido[2,3-b][1,4]oxazine-7-carboxamide] | – | – | > 30 µM | 108, 114, 117, 122, 126, 128, 129, 130, 141, 147, 162*, 165*, 179, | – | 128, 129, 130, 132, 133, 140, 141, 142, 143, 147, 148, 149, 162*, |
| O=C(N[C@@H]1CCCC[C@H]1O)c1cnc2c(c1)N(S(=O)(=O)c1ccc(Cl)c(Cl)c1)CCO2 [Example 135, 1-(3,4-dichlorophenyl-sulfonyl)-N-((1R,2R)-2-hydroxycyclohexyl)-2,3-dihydro-1H-pyrido[2,3-b][1,4]oxazine-7-carboxamide] | > 30 µM | ≤ 0.03 µM | > 30 µM | – | – | – |
| CC(C)(CO)NC(=O)c1cnc2c(c1)N(S(=O)(=O)N1CCC(c3ccccc3)CC1)CCO2 [Example 160, N-(1-hydroxy-2-methylpropan-2-yl)-1-(4-phenylpiperidin-1-ylsulfonyl)-2,3-dihydro-1H-pyrido[2,3-b][1,4]oxazine-7-carboxamide] | > 30 µM | > 30 µM | > 30 µM | – | – | – |
| CNC(=O)[C@@H](NC(=O)c1cnc2c(c1)N(S(=O)(=O)c1ccccc1)CCO2)C(C)(C)C [Example 6, (S)-N-(3,3-dimethyl-1-(methylamino)-1-oxobutan-2-yl)-1-(phenyl-sulfonyl)-2,3-dihydro-1H-pyrido[2,3-b][1,4]oxazine-7-carboxamide] | > 30 µM | ≤ 0.03 µM | > 30 µM | 2, 3, 6*, 7, 8, 10, 11, 12, 15*, 20, 21, 22, 23, 24, 25, 26, 27, 33, 39, | – | – |
| CCC(C)(C)NC(=O)c1cnc2c(c1)N(S(=O)(=O)N1CC(F)(F)C1)CCO2 [Example 194, 1-(3,3-difluoroazetidin-1-ylsulfonyl)-N-tert-pentyl-2,3-dihydro-1H-pyrido[2,3-b][1,4]oxazine-7-carboxamide] | > 30 µM | ≤ 0.03 µM | > 30 µM | – | – | – |
| O=C(O)[C@H]1CCCCN1C(=O)c1cnc2c(c1)N(S(=O)(=O)c1ccc(C(F)(F)F)cc1)CCO2 [Example 78, (R)-1-(1-(4-(trifluoro-methyl)phenylsulfonyl)-2,3-dihydro-1H-pyrido-[2,3-b][1,4]oxazine-7-carbonyl)piperidine-2-carboxylic acid] | – | > 30 µM | > 30 µM | – | > 30 µM | – |
| O=C(c1cnc2c(c1)N(S(=O)(=O)c1ccc(C(F)(F)F)cc1)CCO2)N1CCS(=O)(=O)CC1 [Example 52, 1′,1′-dioxide-thiomorpholino(1-(4-(trifluoromethyl)phenylsulf-onyl)-2,3-dihydro-1H-pyrido[2,3-b][1,4]oxazin-7-yl)methanone] | – | > 30 µM | > 30 µM | – | > 30 µM | – |
| CC(C)(C)NC(=O)c1cnc2c(c1)N(S(=O)(=O)c1ccc(Cl)c(Cl)c1)CCO2 [Example 55, N-tert-butyl-1-(3,4-dichlorophenylsulfonyl)-2,3-dihydro-1H-pyrido[2,3-b][1,4]oxazine-7-carboxamide] | ≤ 0.03 µM | ≤ 0.03 µM | > 30 µM | – | – | – |
